Test results: patent US8722910B2, “Diyne compositions” (Evolva AG, priority 2009, dated 2014)

Tested on: C. albicans
Test: Time course of the fungicidal effect
Type: cell-based
Settings: after 3 hours of incubation
Source text: Samples were removed periodically, filtered, washed and plated onto nutrient agar.

Structure (SMILES): O=C(O)CCCCCCC/C=C\C#CC#Cc1ccco1 [Compound III″]
- reduction in C. albicans CFUs: > 3 log
